From ChEMBL document CHEMBL4308841, “Synthesis, in vitro antiproliferative activity, and kinase inhibitory effects of pyrazole-containing diarylureas and diarylamides” (Eur J Med Chem, 2018)

Columns and labels:
[1] = test system: RXF 393; assay: Growth inhibition of human RXF393 cells incubated for 48 hrs by sulforhodamine B assay; format: functional, cell-based; conditions: RXF 393, 48 h
[2] = test system: RXF 393; assay: Growth inhibition of human RXF393 cells assessed as cell growth at 0.1 uM incubated for 48 hrs by sulforhodamine B assay relative to control; format: functional; conditions: RXF 393, 48 h, read-out: Activity
[3] = test system: BT-549; assay: Growth inhibition of human BT549 cells assessed as cell growth at 0.1 uM incubated for 48 hrs by sulforhodamine B assay relative to control; format: functional; conditions: BT-549, 48 h, read-out: Activity
[4] = test system: HCT-15; assay: Growth inhibition of human HCT15 cells assessed as cell growth at 0.01 uM incubated for 48 hrs by sulforhodamine B assay relative to control; format: functional; conditions: HCT-15, 48 h, read-out: Activity
[5] = test system: Hs-578T; assay: Growth inhibition of human Hs578T cells assessed as cell growth at 100 uM incubated for 48 hrs by sulforhodamine B assay relative to control; format: functional; conditions: read-out: Activity
[6] = test system: A498; assay: Growth inhibition of human A498 cells incubated for 48 hrs by sulforhodamine B assay; format: functional, cell-based; conditions: A498, 48 h
[7] = test system: A549; assay: Growth inhibition of human A549/ATCC cells incubated for 48 hrs by sulforhodamine B assay; format: functional, cell-based; conditions: A549, 48 h
[8] = test system: NCI-H522; assay: Growth inhibition of human NCI-H522 cells assessed as cell growth at 100 uM incubated for 48 hrs by sulforhodamine B assay relative to control; format: functional; conditions: NCI-H522, 48 h, read-out: Activity
[9] = test system: Hs-578T; assay: Growth inhibition of human Hs578T cells assessed as cell growth at 0.01 uM incubated for 48 hrs by sulforhodamine B assay relative to control; format: functional; conditions: read-out: Activity
[10] = test system: DU-145; assay: Growth inhibition of human DU145 cells assessed as cell growth at 1 uM incubated for 48 hrs by sulforhodamine B assay relative to control; format: functional; conditions: DU-145, 48 h, read-out: Activity
[11] = test system: NCI-H23; assay: Growth inhibition of human NCI-H23 cells assessed as cell growth at 0.1 uM incubated for 48 hrs by sulforhodamine B assay relative to control; format: functional; conditions: NCI-H23, 48 h, read-out: Activity
[12] = test system: RPMI-8226; assay: Growth inhibition of human RPMI8226 cells assessed as cell growth at 100 uM incubated for 48 hrs by sulforhodamine B assay relative to control; format: functional; conditions: RPMI-8226, 48 h, read-out: Activity
[13] = test system: HL-60(TB); assay: Growth inhibition of human HL-60(TB) cells assessed as cell growth at 0.1 uM incubated for 48 hrs by sulforhodamine B assay relative to control; format: functional; conditions: HL-60, 48 h, read-out: Activity
[14] = test system: SK-OV-3; assay: Growth inhibition of human SKOV3 cells assessed as cell growth at 0.01 uM incubated for 48 hrs by sulforhodamine B assay relative to control; format: functional; conditions: SK-OV-3, 48 h, read-out: Activity
[15] = test system: 786-0; assay: Growth inhibition of human 786-0 cells assessed as cell growth at 1 uM incubated for 48 hrs by sulforhodamine B assay relative to control; format: functional; conditions: 786-0, 48 h, read-out: Activity
[16] = test system: U-251; assay: Growth inhibition of human U251 cells incubated for 48 hrs by sulforhodamine B assay; format: functional, cell-based; conditions: U-251, 48 h
[17] = test system: RXF 393; assay: Growth inhibition of human RXF393 cells assessed as cell growth at 0.01 uM incubated for 48 hrs by sulforhodamine B assay relative to control; format: functional; conditions: RXF 393, 48 h, read-out: Activity
[18] = test system: NCI-H522; assay: Growth inhibition of human NCI-H522 cells assessed as cell growth at 0.01 uM incubated for 48 hrs by sulforhodamine B assay relative to control; format: functional; conditions: NCI-H522, 48 h, read-out: Activity
[19] = test system: NCI-H460; assay: Growth inhibition of human NCI-H460 cells incubated for 48 hrs by sulforhodamine B assay; format: functional, cell-based; conditions: NCI-H460, 48 h
[20] = test system: SW-620; assay: Growth inhibition of human SW620 cells assessed as cell growth at 100 uM incubated for 48 hrs by sulforhodamine B assay relative to control; format: functional; conditions: SW-620, 48 h, read-out: Activity
[21] = test system: UO-31; assay: Growth inhibition of human UO31 cells incubated for 48 hrs by sulforhodamine B assay; format: functional, cell-based; conditions: UO-31, 48 h
[22] = test system: 786-0; assay: Growth inhibition of human 786-0 cells incubated for 48 hrs by sulforhodamine B assay; format: functional, cell-based; conditions: 786-0, 48 h
[23] = test system: SF-539; assay: Growth inhibition of human SF539 cells assessed as cell growth at 0.1 uM incubated for 48 hrs by sulforhodamine B assay relative to control; format: functional; conditions: SF-539, 48 h, read-out: Activity
[24] = test system: ACHN; assay: Growth inhibition of human ACHN cells assessed as cell growth at 0.1 uM incubated for 48 hrs by sulforhodamine B assay relative to control; format: functional; conditions: read-out: Activity
[25] = test system: COLO 205; assay: Growth inhibition of human COLO205 cells assessed as cell growth at 0.01 uM incubated for 48 hrs by sulforhodamine B assay relative to control; format: functional; conditions: COLO 205, 48 h, read-out: Activity
[26] = test system: SK-OV-3; assay: Growth inhibition of human SKOV3 cells assessed as cell growth at 1 uM incubated for 48 hrs by sulforhodamine B assay relative to control; format: functional; conditions: SK-OV-3, 48 h, read-out: Activity
[27] = test system: SNB-75; assay: Growth inhibition of human SNB75 cells incubated for 48 hrs by sulforhodamine B assay; format: functional, cell-based; conditions: SNB-75, 48 h
[28] = test system: SK-MEL-2; assay: Growth inhibition of human SK-MEL-2 cells assessed as cell growth at 0.01 uM incubated for 48 hrs by sulforhodamine B assay relative to control; format: functional; conditions: SK-MEL-2, 48 h, read-out: Activity
[29] = read-out: LC50 (the source's name)
[30] = read-out: pLC50 (the source's name) (converted)

## COc1cc(Cl)cc(-c2nn(-c3cccc(NC(=O)c4cccc(C(F)(F)F)c4)c3)cc2-c2ccncc2)c1
[1]
  LC50: > 100 µM
[1]; read-out: GI50
  GI50: 1.57 µM
[1]; read-out: TGI
  TGI: > 100 µM
[1]; read-out: pGI50 (converted)
  GI50: 1.86 µM
[1]; read-out: pTGI (converted)
  TGI: > 100 µM
[2]
  growth at 0.1 µM: 65%
[3]
  growth at 0.1 µM: 94%
[4]
  growth at 0.01 µM: 56%
[5]
  growth at 100 µM: 53%
[6]; [29]
  CC50: > 100 µM
[6]; read-out: TGI
  TGI: > 100 µM
[6]; [30]
  CC50: > 100 µM
[6]; read-out: pTGI (converted)
  TGI: > 100 µM
[7]
  IC50: 3.62 µM
[7]; read-out: GI50
  GI50: 3.52 µM
[7]; [29]
  CC50: > 100 µM
[7]; read-out: TGI
  TGI: > 100 µM
[7]; read-out: pGI50 (converted)
  GI50: 3.63 µM
[7]; [30]
  CC50: > 100 µM
[7]; read-out: pTGI (converted)
  TGI: > 100 µM
[8]
  growth at 100 µM: 18%
[9]
  growth at 0.01 µM: 97%
[10]
  growth at 1 µM: 100%
[11]
  growth at 0.1 µM: 97%
[12]
  growth at 100 µM: 22%
[13]
  growth at 0.1 µM: 90%
[14]
  growth at 0.01 µM: 102%
[15]
  growth at 1 µM: 56%
[16]
  IC50: 5.56 µM
[16]; read-out: GI50
  GI50: 5.58 µM
[16]; [29]
  CC50: > 100 µM
[16]; read-out: TGI
  TGI: > 100 µM
[16]; read-out: pGI50 (converted)
  GI50: 5.62 µM
[16]; [30]
  CC50: > 100 µM
[16]; read-out: pTGI (converted)
  TGI: > 100 µM
[17]
  growth at 0.01 µM: 58%
[18]
  growth at 0.01 µM: 51%
[19]; read-out: GI50
  GI50: 5.17 µM
[19]; [29]
  CC50: > 100 µM
[19]; read-out: TGI
  TGI: > 100 µM
[19]; read-out: pGI50 (converted)
  GI50: 5.13 µM
[19]; [30]
  CC50: > 100 µM
[19]; read-out: pTGI (converted)
  TGI: > 100 µM
[20]
  growth at 100 µM: 57%
[21]
  IC50: 2.71 µM
[21]; read-out: GI50
  GI50: 2.71 µM
[21]; [29]
  CC50: > 100 µM
[21]; read-out: TGI
  TGI: > 100 µM
[21]; read-out: pGI50 (converted)
  GI50: 2.69 µM
[21]; [30]
  CC50: > 100 µM
[21]; read-out: pTGI (converted)
  TGI: > 100 µM
[22]; read-out: GI50
  GI50: 1.57 µM
[22]; [29]
  CC50: > 100 µM
[22]; read-out: TGI
  TGI: > 100 µM
[22]; read-out: pGI50 (converted)
  GI50: 16.6 µM
[22]; [30]
  CC50: > 100 µM
[22]; read-out: pTGI (converted)
  TGI: > 100 µM
[23]
  growth at 0.1 µM: 100%
[24]
  growth at 0.1 µM: 98%
[25]
  growth at 0.01 µM: 108%
[26]
  growth at 1 µM: 99%
[27]; read-out: GI50
  GI50: 5.52 µM
[27]; [29]
  CC50: > 100 µM
[27]; read-out: TGI
  TGI: > 100 µM
[27]; read-out: pGI50 (converted)
  GI50: 7.08 µM
[27]; [30]
  CC50: > 100 µM
[27]; read-out: pTGI (converted)
  TGI: > 100 µM
[28]
  growth at 0.01 µM: 52%
